Each block holds one compound with its values, some of them ahead of it.
Columns and labels:
[1] = Surface tension of aqueous solution at 25° C.; format: physicochemical
[2] = Foam test: solution shaken in a graduated cylinder; format: physicochemical
Experimental: Dioctanoyl glyceride (6.88 grams; 0.02 mole), sulfamic acid (2.14 gram; 0.022 mole) and ammonium sulfamate (0.34 gram; 0.00298 mole) were heated with stirring at 120-125° C. for 3 hours. The reaction mixture was a somewhat viscous brown liquid. The reaction mixture was treated with water to make a 10% solution by weight, and centrifuged to recover unreacted diglyceride.

[3] = 0.12% aqueous solution of the product in distilled water
[4] = 0.1% by weight aqueous solution of the reaction mixture
[5] = 20 ml of the 0.1% solution shaken in a 100 ml graduated cylinder for 20 full cycles

Compound: Sodium Salt of Sulfated Dioctanoyl Glyceride [Example 5]
surface tension at 25° C. [1, 3]: 26.8 mN/m
foaming (observed) [2, 3]: foam very well

Compound: Sodium Salt of Sulfonated Didecanoyl Glyceride [Example 4]
surface tension at 25° C. ([1]; 0.1 g sample of reaction mixture dissolved in distilled water, neutralized to pH about 8 with NaOH): 25.9 mN/m

Compound: CCCCCC(=O)OCC(COS(=O)(=O)O)OC(=O)CCCCC.N (centres unmarked) [Example 2, Ammonium Salt of Sulfated Dihexanoyl Glyceride]
surface tension at 25° C. ([1]; 0.4% by weight aqueous solution of the reaction mixture): 31.9 mN/m

Compound: CCCCCC(=O)OCC(COS(=O)(=O)O)OC(=O)CCCCC.N (centres unmarked) [Example 6 I, Ammonium Salt of Sulfated Dihexanoyl Glyceride]
surface tension at 25° C. ([1]; 0.42% aqueous solution of the product): 35.6 mN/m

The remaining lines, values ahead:

surface tension at 25° C. ([1]; 0.44% aqueous solution of the reaction mixture): 36.5 mN/m
Compound: Mixed Morpholinium, Ammonium Salt of Sulfated Dihexanoyl Glyceride [Example 3]

surface tension at 25° C. [1, 4]: 25.4 mN/m
foam persistence [2, 5]: one hour or more
foam produced [2, 5]: 45 mL
Compound: CCCCCCCC(=O)OCC(COS(=O)(=O)O)OC(=O)CCCCCCC.N (centres unmarked) [Example 1 (ammonium salt), Sulfated Dioctanoyl Glyceride]

surface tension at 25° C. [1, 4]: 26.3 mN/m
Compound: CCCCCCCC(=O)OCC(COS(=O)(=O)O)OC(=O)CCCCCCC.N (centres unmarked) [Example 1 (sodium salt), Sulfated Dioctanoyl Glyceride]

surface tension at 25° C. ([1]; 0.42% (by weight) solution of the reaction mixture, diluted from 10% solution (pH about 9) after centrifugation): 35.0 mN/m
Compound: Mixed Sodium and Ammonium Salt of Sulfated Dihexanoyl Glyceride [Example 6 II]

— patent US20060167298A1, “Sulfated diglyceride derivatives, salts thereof, and processes for their preparation” (priority 2005, published 2006)
